# Laboratory results published in ChEMBL document CHEMBL3763150, “New antibacterial isocoumarin glycosides from a wetland soil derived fungal strain Metarhizium anisopliae” (2016).
# The source made the active and inactive calls. The rule behind the calls is not given here.
# Tested on: Pseudomonas aeruginosa
# Assay: Antibacterial activity against clinical isolates of Pseudomonas aeruginosa PAOA incubated for 20 hrs by two fold dilution method
# Type: functional
row,Structure (SMILES),MIC [µg/mL]
1,C/C=C/CC[C@H]1Cc2cc(O[C@@H]3O[C@H](COC(C)=O)[C@@H](OC)[C@H](O)[C@H]3O)c(OC)c(O)c2C(=O)O1,> 128
2,C/C=C/CCc1cc2cc(O[C@@H]3O[C@H](CO)[C@@H](OC)[C@H](O)[C@H]3O)c(OC)c(O)c2c(=O)o1,> 128
3,O=C1C=C(Br)/C(=C/Br)O1,128
4,C/C=C/CC[C@H]1Cc2cc(O)c(O[C@@H]3O[C@H](CO)[C@@H](OC)[C@H](O)[C@H]3O)c(O)c2C(=O)O1,> 128
5,C/C=C/CC[C@H]1Cc2cc(O[C@@H]3O[C@H](CO)[C@@H](OC)[C@H](O)[C@H]3O)c(OC)c(O)c2C(=O)O1,> 128
6,C/C=C/C=C/[C@H]1Cc2cc(O[C@@H]3O[C@H](CO)[C@@H](OC)[C@H](O)[C@H]3O)c(OC)c(O)c2C(=O)O1,> 128
7,C/C=C/CC[C@H]1Cc2c(O)c(O[C@@H]3O[C@H](CO)[C@@H](OC)[C@H](O)[C@H]3O)cc(O)c2C(=O)O1,> 128
8,C/C=C/C=C/[C@H]1Cc2cc(O[C@@H]3O[C@H](CO)[C@@H](OC)[C@H](O)[C@H]3O)cc(O)c2C(=O)O1,> 128
9,C/C=C/CC[C@H]1Cc2cc(O[C@@H]3O[C@H](CO)[C@@H](OC)[C@H](O)[C@H]3O)cc(O)c2C(=O)O1,> 128

# Tested on: Pseudomonas aeruginosa
# Assay: Antibiofilm activity against clinical isolates of Pseudomonas aeruginosa PAOA at 16 to 64 ug/ml incubated for 20 hrs by crystal violet staining based spectrophotometric analysis
# Type: functional, organism-based
row,Structure (SMILES),Activity
1,C/C=C/CC[C@H]1Cc2cc(O[C@@H]3O[C@H](COC(C)=O)[C@@H](OC)[C@H](O)[C@H]3O)c(OC)c(O)c2C(=O)O1,Active
2,O=C1C=C(Br)/C(=C/Br)O1,Active

# Tested on: Pseudomonas aeruginosa
# Assay: Antibacterial activity against clinical isolates of Pseudomonas aeruginosa PAOA assessed as inhibition of pyocyanine secretion at 64 ug/ml
# Type: functional, organism-based
row,Structure (SMILES),inhibition
1,C/C=C/CC[C@H]1Cc2cc(O[C@@H]3O[C@H](COC(C)=O)[C@@H](OC)[C@H](O)[C@H]3O)c(OC)c(O)c2C(=O)O1,Active

# Tested on: Pseudomonas aeruginosa
# Assay: Antibacterial activity against clinical isolates of Pseudomonas aeruginosa PAOA assessed as inhibition of rhamnolipid secretion at 64 ug/ml
# Type: functional, organism-based
row,Structure (SMILES),inhibition
1,C/C=C/CC[C@H]1Cc2cc(O[C@@H]3O[C@H](COC(C)=O)[C@@H](OC)[C@H](O)[C@H]3O)c(OC)c(O)c2C(=O)O1,Active

# Tested on: Pseudomonas aeruginosa
# Assay: Antibacterial activity against clinical isolates of Pseudomonas aeruginosa PAOA assessed as inhibition of rhamnolipid secretion at 32 ug/ml
# Type: functional, organism-based
row,Structure (SMILES),inhibition
1,C/C=C/CC[C@H]1Cc2cc(O[C@@H]3O[C@H](COC(C)=O)[C@@H](OC)[C@H](O)[C@H]3O)c(OC)c(O)c2C(=O)O1,Active
2,O=C1C=C(Br)/C(=C/Br)O1,Active
